Where “and” joins values, the source holds several entries; their conditions need not be identical. Equal values may be shown once.
Experiments:
[1] = target: T1, T305D,S472D variant of Akt-3 (Homo sapiens, UniProt Q9Y243, S472D/T305D); test: Akt-3 histone H2B phosphorylation assay (GST fusion protein from E. coli, phosphorimager after SDS-PAGE); type: biochemical; conditions: for effect on the activity of the T305D,S472D variant of Akt-3: tested at a concentration of 10 FM
T1 construct: made in house; host or cells: E. coli BL21 DE3 (pGEX-4T-3)
Method: After 30 minutes, the reaction was terminated and the extent of H2B phosphorylation quantified on a phosphorimager following SDS-PAGE.
The pGEX expression constructs were transformed into E. coli strain BL21 DE3 and GST-fusion proteins of wild-type and mutated Akt-3 were purified on glutathione sepharose according to the manufacturers instructions (Amersham Pharmacia Biotech, Uppsala, Sweden). The protein eluted from the beads was stored in 50% glycerol at −20° C. Akt activity was assessed by incubating 0.8 Fg of the purified enzyme for 30 minutes at room temperature (unless otherwise indicated) in a buffer containing 10 mM HEPES, 10 mM MgCl2, 1 mM DTT, 0.1 mg/ml histone H2B at pH 7.0, in a total volume of 25 Fl and containing 10 FCi [γ-^32P]-ATP (6000 Ci/mmol). […] The reaction was stopped by the addition of 25 Fl sample buffer for SDS-PAGE. The results were quantified on a phosphorimager following SDS-PAGE on a 15% (w/v) acrylamide gel.

histone H2B [2] = test system: histone H2B
PKC [3] = conditions: Davis, et al., 1992; cited from earlier work
PKC [4] = test: Inhibition of PKC (literature, Davis et al., 1992); type: biochemical; conditions: more potent inhibitor of PKC than of Akt-3
Akt-3 [5] = test: Activation of HA-tagged Akt-3 by IGF in transfected HEK-293 cells (immunoprecipitate, Crosstide phosphorylation); type: cell-based, human
Method: FIG. 3 is an illustration of phosphorylation of histone H2B by Akt-3 variants. (A) Akt-3 was expressed as a GST fusion protein in E. Coli. To assess hAkt-3 activity, Histone H2B was incubated with GST-Akt-3 and GST-Akt-3 variants for the indicated time and the extent of phosphorylation assessed after SDS-PAGE. The variants of Akt-3 are designated: W.T., wild type; T305D, Thr^305 mutated to Asp; S472D, Ser^472 mutated to Asp; T305D,S472D, both Thr^305 and Ser^472 mutated to Asp. No significant phosphorylation was observed when GST was used in place of GST-Akt. […] Samples were analysed by blotting for the HA-tag (upper panel) or with a phosphospecific antibody which recognises phosphorylated ser^472 (lower panel). (C) Akt activity in HA-immuno-precipitates from samples prepared as described above was assessed by measuring phosphorylation of a peptide substrate (Crosstide). The results are expressed as the increase in activity compared to unstimulated cells transfected with empty vector (mean±s.e.m., n=7).
For expression in HEK-293 cells, cells were transfected with pCDNA-3 Akt-3 constructs as described previously (Alessi et al 1996). […] Akt activity was assessed in immune complexes by measuring phosphorylation of a peptide substrate (Crosstide) in the presence of 1 μM PKI (PKA inhibitor) and 1 μM […] (PKC inhibitor) as described.

Akt-3 [6] = test: Activation of HA-tagged Akt-3 by IGF-1 in transfected Cos-7 cells (HA immunoprecipitates); type: cell-based, human; conditions: stimulation with IGF-1 10 ng/ml, n=2
Method: Akt-3 was transiently expressed in Cos-7 by calcium phosphate transfection of the cells with the construct HA-hAkt-3/pcDNA-3. The cells were stimulated with 10 ng/ml IGF-1 for 30 minutes, lysed and Akt-3 immunoprecipitated with mAb 12CA5. Akt-3 activity was assessed as described below.

histone H2B [7] = target: histone H2B; remark: listed apart in the source

T1 sequence (Q9Y243 whole entry T305D/S472D, the tested form may be a part): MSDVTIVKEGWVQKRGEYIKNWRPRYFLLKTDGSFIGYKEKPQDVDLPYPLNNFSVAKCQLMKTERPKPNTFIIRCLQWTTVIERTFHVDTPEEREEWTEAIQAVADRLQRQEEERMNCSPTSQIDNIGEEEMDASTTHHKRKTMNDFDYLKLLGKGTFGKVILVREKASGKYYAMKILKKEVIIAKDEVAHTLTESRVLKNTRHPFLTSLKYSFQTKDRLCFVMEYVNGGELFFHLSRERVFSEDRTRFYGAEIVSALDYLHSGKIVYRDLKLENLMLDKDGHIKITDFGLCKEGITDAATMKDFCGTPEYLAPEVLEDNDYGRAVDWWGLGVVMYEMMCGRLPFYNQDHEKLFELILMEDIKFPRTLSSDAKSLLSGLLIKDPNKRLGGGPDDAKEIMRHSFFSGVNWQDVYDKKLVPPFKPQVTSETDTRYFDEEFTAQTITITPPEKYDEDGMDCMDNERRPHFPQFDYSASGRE

## Cn1c2ccccc2c2c3c(c4c5ccccc5n(CCC#N)c4c21)CNC3=O [Go 6976]
[1]
  effect on the activity of the T305D,S472D variant of Akt-3: no significant effect

## GST-Akt-3 T305D (construct hAKT-3(T305D)/pGEX-4T-3)
Histone H2B [2]
  initial rate of phosphorylation of histone H2B, relative to the wild-type enzyme: 2.0-fold increase

## Cn1cc(C2=C(c3cn(CCCSC(=N)N)c4ccccc34)C(=O)NC2=O)c2ccccc21 [Ro 31-8220]
PKC [3]
  IC50: 0.1 nM
PKC [4]
  potency as inhibitor of PKC relative to Akt-3: approximately 100 fold
[1]; discussion summary of the inhibitor panel
  inhibition of Akt-3 (in words): potently inhibited

## O=c1cc(N2CCOCC2)oc2c(-c3ccccc3)cccc12 [CY29 4002]
Akt-3 [5]; prior treatment, 100 FM, HEK-293 cells stimulated with IGF, data not shown
  inhibition of activation of Akt-3: 94%

## CN([C@@H](Cc1ccc(OS(=O)(=O)c2cccc3cnccc23)cc1)C(=O)N1CCN(c2ccccc2)CC1)S(=O)(=O)c1cccc2cnccc12 [KN-62]
[1]
  effect on the activity of the T305D,S472D variant of Akt-3: no significant effect

## CCCCCCOC(=O)[C@]1(O)C[C@@H]2O[C@@]1(C)n1c3ccccc3c3c4c(c5c6ccccc6n2c5c31)C(=O)NC4 [KT5720]
[1]
  effect on the activity of the T305D,S472D variant of Akt-3: no significant effect

## IGF-1: extracellular stimulus (growth factor) used to activate Akt-3 in transfected cells
Akt-3 [6]
  increase of Akt-3 activity in HA immunoprecipitates: 1.5 fold and 1.9 fold
Akt-3 [5]; upon treatment with IGF (50 ng/ml), above that in untransfected cells, HEK-293
  increase of Akt-3 activity in anti-HA immunoprecipitates: ~60 fold

## GST-Akt-3 T305D,S472D (construct hAKT-3(T305D/S472D)/pGEX-4T-3)
Histone H2B [2]
  initial rate of phosphorylation of histone H2B, relative to the wild-type enzyme: 3.2-fold increase

## O=S(=O)(NCCNCC=Cc1ccccc1)c1cccc2cnccc12 [H-88]
[1]
  effect on the activity of the T305D,S472D variant of Akt-3: no significant effect

## O=S(=O)(NCCNC/C=C/c1ccc(Br)cc1)c1cccc2cnccc12 [H-89]
[1]
  effect on the activity of the T305D,S472D variant of Akt-3: no significant effect

## CN(C)CCCn1cc(C2=C(c3c[nH]c4ccccc34)C(=O)NC2=O)c2ccccc21 [GF-109203×]
[1]
  effect on the activity of the T305D,S472D variant of Akt-3: no significant effect

## COc1cccc(-c2cc(=O)c3ccccc3o2)c1N [PD 98059]
[1]
  effect on the activity of the T305D,S472D variant of Akt-3: no significant effect

## GST-Akt-3 S472D (construct hAKT-3(S472D)/pGEX-4T-3)
Histone H2B [2]
  initial rate of phosphorylation of histone H2B, relative to the wild-type enzyme: increased the initial rate only 1.4 fold

B1: GST-Akt-3 wild type (construct hAKT-3(WT)/pGEX-4T-3) (protein)
chain: MSDVTIVKEGWVQKRGEYIKNWRPRYFLLKTDGSFIGYKEKPQDVDLPYPLNNFSVAKCQLMKTERPKPNTFIIRCLQWTTVIERTFHVDTPEEREEWTEAIQAVADRLQRQEEERMNCSPTSQIDNIGEEEMDASTTHHKRKTMNDFDYLKLLGKGTFGKVILVREKASGKYYAMKILKKEVIIAKDEVAHTLTESRVLKNTRHPFLTSLKYSFQTKDRLCFVMEYVNGGELFFHLSRERVFSEDRTRFYGAEIVSALDYLHSGKIVYRDLKLENLMLDKDGHIKITDFGLCKEGITDAATMKTFCGTPEYLAPEVLEDNDYGRAVDWWGLGVVMYEMMCGRLPFYNQDHEKLFELILMEDIKFPRTLSSDAKSLLSGLLIKDPNKRLGGGPDDAKEIMRHSFFSGVNWQDVYDKKLVPPFKPQVTSETDTRYFDEEFTAQTITITPPEKYDEDGMDCMDNERRPHFPQFSYSASGRE
Histone H2B [7]
  phosphorylation of histone H2B: The purified enzyme was able to phosphorylate histone H2B

From patent US7071316B1, “Human Akt-3” (Janssen Pharmaceutica N.V., priority 1998, dated 2006)
